Legend:
Thiobacilli (consortium) [1] = assay: Effect of different salts on acidification, TM medium with sulfur powder and inoculated mixed culture (Example 7); type: cell-based, Thiobacillus
Description: The verification is aimed at discovering the effects deriving from the presence of different salts at varying concentrations on the same consortium.
A series of 12 100 ml flasks containing 50 ml of TM medium (with 0.4 g of sulfur powder), was inoculated with 1 ml of mixed culture containing 10^8 cells/ml.
• 3 control flasks containing TM and sulfur, with NaCl (0.16 M, 0.33 M, 0.56 M); • 3 flasks with TM, sulfur and Na2SO4 (0.12 M, 0.24 M, 0.56 M); • 3 flasks with TM, sulfur and KCl (0.13 M, 0.26 M, 0.56 M); • 3 flasks with TM, sulfur and KNO3 (0.09 M, 0.19 M, 0.56 M) The data collected are listed in Table 6.

[2] = test system: Thiobacilli (microbial consortium); assay: Comparison of NaCl and SLS, TM medium with sulfur flowers and inoculated mixed culture (Example 6); type: cell-based, Thiobacillus; conditions: for O.D. / p.H.: C: 20 mg/l of SLS
Description: The experiment was aimed at comparing the action of SLS, a known bacteriostatic for Thiobacilli, and Sodium Chloride on the same microbial consortium.
A series of 6 100 ml flasks containing 50 ml of TM medium (with 0.4 g of sulfur flowers), were inoculated with 1 ml of mixed culture containing 10^8 cells/ml.
• A—2 control flasks containing TM and sulfur, without NaCl; • B—2 flasks with TM, sulfur and 33 g/l of NaCl; • C—2 flasks with TM, sulfur and 20 mg/l of SLS (concentration used in literature as bacteriostatic) The pH values and the bacterial growth were measured over a period of 34 days, by means of the increase in the absorbance.

Thiobacilli = conditions: bacteriostatic product; literature (Clark et al. 1998); cited from earlier work
Thiobacilli (consortium) [3] = assay: Effect of different salts on acidification, TM medium with sulfur powder and inoculated mixed culture (Example 7); type: cell-based, Thiobacillus; conditions: salt 0.5 M, day 28

[Cl-].[K+] [KCl]
PH (Thiobacilli (consortium) [1]; salt 0.13 M, day 0): 6.0 | PH (Thiobacilli (consortium) [1]; salt 0.13 M, day 2): 6.0 | PH (Thiobacilli (consortium) [1]; salt 0.13 M, day 6): 4.5 | PH (Thiobacilli (consortium) [1]; salt 0.13 M, day 9): 4.0 | PH (Thiobacilli (consortium) [1]; salt 0.13 M, day 12): 3.5 | PH (Thiobacilli (consortium) [1]; salt 0.13 M, day 15): 3.0 | PH (Thiobacilli (consortium) [1]; salt 0.13 M, day 18): 3.0 | PH (Thiobacilli (consortium) [1]; salt 0.13 M, day 20): 3.0 | PH (Thiobacilli (consortium) [1]; salt 0.13 M, day 24): 2.5 | PH (Thiobacilli (consortium) [1]; salt 0.13 M, day 28): 2.5 | PH (Thiobacilli (consortium) [1]; salt 0.13 M, day 30): 2.4 | PH (Thiobacilli (consortium) [1]; salt 0.13 M, day 40): 1.5 | PH (Thiobacilli (consortium) [1]; salt 0.26 M, day 0): 6.0 | PH (Thiobacilli (consortium) [1]; salt 0.26 M, day 2): 6.0 | PH (Thiobacilli (consortium) [1]; salt 0.26 M, day 6): 5.5 | PH (Thiobacilli (consortium) [1]; salt 0.26 M, day 9): 5.5 | PH (Thiobacilli (consortium) [1]; salt 0.26 M, day 12): 5.5 | PH (Thiobacilli (consortium) [1]; salt 0.26 M, day 15): 5.5 | PH (Thiobacilli (consortium) [1]; salt 0.26 M, day 18): 5.2 | PH (Thiobacilli (consortium) [1]; salt 0.26 M, day 20): 5.2 | PH (Thiobacilli (consortium) [1]; salt 0.26 M, day 24): 5.0 | PH (Thiobacilli (consortium) [1]; salt 0.26 M, day 28): 5.0 | PH (Thiobacilli (consortium) [1]; salt 0.26 M, day 30): 5.0 | PH (Thiobacilli (consortium) [1]; salt 0.26 M, day 40): 4.9 | PH (Thiobacilli (consortium) [1]; salt 0.56 M, day 0): 6.0 | PH (Thiobacilli (consortium) [1]; salt 0.56 M, day 2): 6.0 | PH (Thiobacilli (consortium) [1]; salt 0.56 M, day 6): 6.0 | PH (Thiobacilli (consortium) [1]; salt 0.56 M, day 9): 6.0 | PH (Thiobacilli (consortium) [1]; salt 0.56 M, day 12): 6.0 | PH (Thiobacilli (consortium) [1]; salt 0.56 M, day 15): 6.0 | PH (Thiobacilli (consortium) [1]; salt 0.56 M, day 18): 6.0 | PH (Thiobacilli (consortium) [1]; salt 0.56 M, day 20): 6.0 | PH (Thiobacilli (consortium) [1]; salt 0.56 M, day 24): 6.0 | PH (Thiobacilli (consortium) [1]; salt 0.56 M, day 28): 6.0 | PH (Thiobacilli (consortium) [1]; salt 0.56 M, day 30): 6.0 | PH (Thiobacilli (consortium) [1]; salt 0.56 M, day 40): 5.8

CCCCCCCCCCCCOS(=O)(=O)[O-].[Na+] [SLS, Sodium Lauryl Sulfate, reference compound]
inhibition of the acidification of water in contact with elemental sulfur ([2]; 33 g/l NaCl, 20 mg/l SLS): capable of inhibiting the acidification | O.D. ([2]; day 0): 0.014 | p.H. ([2]; day 0): 6.0 | O.D. ([2]; day 3): 0.013 | p.H. ([2]; day 3): 4.5 | O.D. ([2]; day 5): 0.042 | p.H. ([2]; day 5): 4.5 | O.D. ([2]; day 8): 0.073 | p.H. ([2]; day 8): 4.0 | O.D. ([2]; day 11): 0.067 | p.H. ([2]; day 11): 4.0 | O.D. ([2]; day 16): 0.098 | p.H. ([2]; day 16): 3.8 | O.D. ([2]; day 21): 0.080 | p.H. ([2]; day 21): 3.8 | O.D. ([2]; day 23): 0.035 | p.H. ([2]; day 23): 3.8 | O.D. ([2]; day 28): 0.033 | p.H. ([2]; day 28): 3.2 | O.D. ([2]; day 31): 0.020 | p.H. ([2]; day 31): 3.2 | reduction of corrosion of metallic containers used for transporting or containing sulfur (Thiobacilli): effective for reducing the corrosion

O=S(=O)([O-])[O-].[Na+].[Na+] [Na2SO4]
PH (Thiobacilli (consortium) [1]; salt 0.12 M, day 0): 6.0 | PH (Thiobacilli (consortium) [1]; salt 0.12 M, day 2): 6.0 | PH (Thiobacilli (consortium) [1]; salt 0.12 M, day 6): 3.5 | PH (Thiobacilli (consortium) [1]; salt 0.12 M, day 9): 2.8 | PH (Thiobacilli (consortium) [1]; salt 0.12 M, day 12): 2.8 | PH (Thiobacilli (consortium) [1]; salt 0.12 M, day 15): 2.8 | PH (Thiobacilli (consortium) [1]; salt 0.12 M, day 18): 2.5 | PH (Thiobacilli (consortium) [1]; salt 0.12 M, day 20): 1.8 | PH (Thiobacilli (consortium) [1]; salt 0.12 M, day 24): 1.8 | PH (Thiobacilli (consortium) [1]; salt 0.12 M, day 28): 1.6 | PH (Thiobacilli (consortium) [1]; salt 0.12 M, day 30): 1.6 | PH (Thiobacilli (consortium) [1]; salt 0.12 M, day 40): 1.4 | PH (Thiobacilli (consortium) [1]; salt 0.24 M, day 0): 6.0 | PH (Thiobacilli (consortium) [1]; salt 0.24 M, day 2): 6.0 | PH (Thiobacilli (consortium) [1]; salt 0.24 M, day 6): 4.5 | PH (Thiobacilli (consortium) [1]; salt 0.24 M, day 9): 4.0 | PH (Thiobacilli (consortium) [1]; salt 0.24 M, day 12): 3.5 | PH (Thiobacilli (consortium) [1]; salt 0.24 M, day 15): 3.0 | PH (Thiobacilli (consortium) [1]; salt 0.24 M, day 18): 2.8 | PH (Thiobacilli (consortium) [1]; salt 0.24 M, day 20): 2.0 | PH (Thiobacilli (consortium) [1]; salt 0.24 M, day 24): 2.0 | PH (Thiobacilli (consortium) [1]; salt 0.24 M, day 28): 1.7 | PH (Thiobacilli (consortium) [1]; salt 0.24 M, day 30): 1.5 | PH (Thiobacilli (consortium) [1]; salt 0.24 M, day 40): 1.5 | PH (Thiobacilli (consortium) [1]; salt 0.56 M, day 0): 6.0 | PH (Thiobacilli (consortium) [1]; salt 0.56 M, day 2): 6.0 | PH (Thiobacilli (consortium) [1]; salt 0.56 M, day 6): 6.0 | PH (Thiobacilli (consortium) [1]; salt 0.56 M, day 9): 6.0 | PH (Thiobacilli (consortium) [1]; salt 0.56 M, day 12): 6.0 | PH (Thiobacilli (consortium) [1]; salt 0.56 M, day 15): 5.9 | PH (Thiobacilli (consortium) [1]; salt 0.56 M, day 18): 5.9 | PH (Thiobacilli (consortium) [1]; salt 0.56 M, day 20): 5.9 | PH (Thiobacilli (consortium) [1]; salt 0.56 M, day 24): 5.9 | PH (Thiobacilli (consortium) [1]; salt 0.56 M, day 28): 5.9 | PH (Thiobacilli (consortium) [1]; salt 0.56 M, day 30): 5.9 | PH (Thiobacilli (consortium) [1]; salt 0.56 M, day 40): 5.8

O=[N+]([O-])[O-].[K+] [KNO3]
PH (Thiobacilli (consortium) [1]; salt 0.09 M, day 0): 6.0 | PH (Thiobacilli (consortium) [1]; salt 0.09 M, day 2): 6.0 | PH (Thiobacilli (consortium) [1]; salt 0.09 M, day 6): 3.8 | PH (Thiobacilli (consortium) [1]; salt 0.09 M, day 9): 3.0 | PH (Thiobacilli (consortium) [1]; salt 0.09 M, day 12): 3.0 | PH (Thiobacilli (consortium) [1]; salt 0.09 M, day 15): 3.0 | PH (Thiobacilli (consortium) [1]; salt 0.09 M, day 18): 3.0 | PH (Thiobacilli (consortium) [1]; salt 0.09 M, day 20): 3.0 | PH (Thiobacilli (consortium) [1]; salt 0.09 M, day 24): 3.0 | PH (Thiobacilli (consortium) [1]; salt 0.09 M, day 28): 3.0 | PH (Thiobacilli (consortium) [1]; salt 0.09 M, day 30): 3.0 | PH (Thiobacilli (consortium) [1]; salt 0.09 M, day 40): 3.0 | PH (Thiobacilli (consortium) [1]; salt 0.19 M, day 0): 6.0 | PH (Thiobacilli (consortium) [1]; salt 0.19 M, day 2): 6.0 | PH (Thiobacilli (consortium) [1]; salt 0.19 M, day 6): 4.8 | PH (Thiobacilli (consortium) [1]; salt 0.19 M, day 9): 4.0 | PH (Thiobacilli (consortium) [1]; salt 0.19 M, day 12): 4.0 | PH (Thiobacilli (consortium) [1]; salt 0.19 M, day 15): 4.0 | PH (Thiobacilli (consortium) [1]; salt 0.19 M, day 18): 4.0 | PH (Thiobacilli (consortium) [1]; salt 0.19 M, day 20): 4.0 | PH (Thiobacilli (consortium) [1]; salt 0.19 M, day 24): 4.0 | PH (Thiobacilli (consortium) [1]; salt 0.19 M, day 28): 4.0 | PH (Thiobacilli (consortium) [1]; salt 0.19 M, day 30): 3.3 | PH (Thiobacilli (consortium) [1]; salt 0.19 M, day 40): 3.2 | PH (Thiobacilli (consortium) [1]; salt 0.5 M, day 0): 6.0 | PH (Thiobacilli (consortium) [1]; salt 0.5 M, day 2): 6.0 | PH (Thiobacilli (consortium) [1]; salt 0.5 M, day 6): 6.0 | PH (Thiobacilli (consortium) [1]; salt 0.5 M, day 9): 6.0 | PH (Thiobacilli (consortium) [1]; salt 0.5 M, day 12): 6.0 | PH (Thiobacilli (consortium) [1]; salt 0.5 M, day 15): 6.0 | PH (Thiobacilli (consortium) [1]; salt 0.5 M, day 18): 6.0 | PH (Thiobacilli (consortium) [1]; salt 0.5 M, day 20): 6.0 | PH (Thiobacilli (consortium) [1]; salt 0.5 M, day 24): 6.0 | PH (Thiobacilli (consortium) [1]; salt 0.5 M, day 30): 6.0 | PH (Thiobacilli (consortium) [1]; salt 0.5 M, day 40): 5.8 | PH (Thiobacilli (consortium) [3]): 6.0
